The record followed here is BindingDB's records for patent US20240101551 (Chia Tai Tianqing Pharmaceutical Group, 2024).

Each structure is given as a SMILES string.

The assay has as its target T1, Bromodomain-containing protein 4 [75-147] (Homo sapiens, UniProt O60885).
T1 construct: 75-147
As to the kind of experiment: In Vitro Enzymatic Activity Assay. The method, then: In the present application, the IC50 value of the compound of formula (I) in inhibiting BRD4 (BD1) enzyme binding reaction were determined by homogeneous time resolved fluorescence (HTRF). The compound of formula (I) was serially diluted 5-fold with 100% DMSO starting from 0.2 mM (7 concentrations in total), and then 2 μL of the compound of formula (I) at each concentration was added to 48 μL of a reaction buffer (20 mM HEPES pH 7.5, 150 mM NaCl, 5 mM DTT, 0.005 % Tween 20, and 100 μg/mL BSA) for dilution, and mixed well. 2.5 μL of the resulting mixture was added to a 384-well plate (OptiPlate-384, purchased from PerkinElmer), then 5 μL of GST-BRD4 (BD1, 44-168 aa) (final concentration: 1 nM) was added, and the resulting mixture was centrifuged, and fully mixed. 2.5 μL of a short peptide Biotin-AHA-SGRGK(Ac)GGK(Ac)GLGK(Ac)GGAK(Ac) RHRKV (final concentration: 100 nM) was then added to initiate the reaction (total reaction volume: 10 μL). […] After being incubated in the incubator for another 1 hour, the fluorescence values (excited at 320 nm, emitted light at 665 nm and 620 nm being detected, and the ratio of the two being the enzyme binding signal) were read on Envision (purchased from PerkinElmer).

Compound `Cn1cc(-c2nc(CS(C)(=O)=O)ccc2Oc2ccc(F)cc2F)c2cc[nH]c2c1=O` [US20240101551, Compound of Formula I] came in with an IC50 of 0.64 nM.
